Results on 14 molecules are retold here after PMC9849758, “Chemically diverse activity-based probes with unexpected inhibitory mechanisms targeting trypsin-like serine proteases” (Frontiers in Chemistry, 2023).

“Also recorded” adds a separate entry of the source. Counter-ions that a name gives are not always drawn.

The target of experiment [1] is T1, Trypsin-3 (Homo sapiens, UniProt P35030).
T1 sequence (P35030 1-304): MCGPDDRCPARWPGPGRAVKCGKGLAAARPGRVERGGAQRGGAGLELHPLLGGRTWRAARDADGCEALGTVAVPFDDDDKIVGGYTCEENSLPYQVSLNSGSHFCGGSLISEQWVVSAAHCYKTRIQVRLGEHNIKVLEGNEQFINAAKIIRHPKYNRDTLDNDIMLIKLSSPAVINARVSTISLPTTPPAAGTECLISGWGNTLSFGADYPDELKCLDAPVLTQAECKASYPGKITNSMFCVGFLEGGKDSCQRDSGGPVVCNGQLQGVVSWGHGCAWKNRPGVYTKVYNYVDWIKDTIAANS
The experiment is described as follows: Kinetic progress curves (kapp, K1, KI*, mechanism). The class given is biochemical. Further details: purchased R&D. As to conditions: for Trypsin-3 mechanism of inhibition: defined by the progress curves: slow-binding (Rev.) or irreversible (Irrev.); for Trypsin-3 kapp: apparent second-order rate constant from progress curves; for Trypsin-3 kapp / Ki: mean ± SD. How it is done: Because the compounds described in this paper were previously described as irreversible inhibitors, the IC50 value is inversely correlated with the second-order rate constant of inactivation. For a simple pseudo-first-order inactivation process, the activity after incubation with inhibitor (vi) varies with the inhibitor concentration (i), as described in the following equation: vi=v0·e^−kit where v0 is the activity in the absence of an inhibitor, k is the second-order rate constant of inactivation, and t is the time. The inactivation rate constant was determined from the time course of inhibition.
Kinetic assays were performed in the following manner. The inhibitor was mixed with the substrate, and the buffer solution with the enzyme was added at the time zero. The progress curves show the release of pNA or AMC as a function of time. Initially, no inhibitor is bound to the enzyme, and the tangent to the progress curve (dA/dt) is proportional to the free enzyme concentration. The free enzyme concentration decreases over time due to inhibitor binding kinetics, as described above. Progress curves were recorded in pseudo-first-order conditions ([I]0>>[E]0) and with less than 10% conversion of the substrate during the entire time course. In these conditions, dA/dt decreases exponentially with time. The progress curves were fitted with the integrated rate equation with GraFit7 to yield a value for kobs, a pseudo-first-order rate constant. At=Ao+vs∙t+vi−vs∙1−e^−kobs∙t/kobs where At is the absorbance at time t, A0 is the absorbance at time zero, vi is the initial rate and vs is the velocity at the steady-state.
The apparent second-order rate constant (kapp) was calculated from the slope of the linear part of the plot of kobs vs. the inhibitor concentration ([I]0). In the case of competition between the inhibitor and the substrate, kapp is smaller than the “real” second-order rate constant k discussed above because a certain fraction of the enzyme is present as an enzyme-substrate complex. kapp depends on the substrate concentration used in the experiment, as described by [Lambeir et al. (1996)].
The apparent equilibrium constants were obtained from the following equations, vi/vo=1/1+I/K1; vS/vo=1/1+I/KI* where vi is the initial rate, vs is the steady-state velocity and vo is the uninhibited initial rate.

In experiment [2] the target is T1, Trypsin-3. The experiment is described as follows: Jump dilution, determination of inhibition type. To be noted: inhibitor at 10 times IC50, 15 min, diluted 10-fold or 100-fold; Rev./Irrev. It is filed as biochemical. The arrangement: purchased R&D. Here is the method:
The dissociation of the enzyme-inhibitor complex was monitored by substrate hydrolysis over time ([Joossens et al., 2006]).
Because ABPs are designed to be irreversible serine protease inhibitors, the IC50 is exclusively used as a first discriminatory evaluation. When an inhibitor is irreversible, its IC50 value not only depends on the substrate and enzyme concentration but also on the time of incubation with the enzyme before the reaction is started by adding the substrate. […] The progress curve in the presence of an irreversible inhibitor will show final velocities equal to zero (Figure 6C). In contrast, for a reversible inhibitor, progress curves have a non-zero final steady-state velocity (Figure 6A) ([McWhirter, 2021]). To corroborate the inhibitory mechanism of the compounds, jump-dilution assays were performed. These use an inhibitor concentration of 10-fold the IC50 for the incubation, and a posteriori, the reaction mixture is diluted 10-fold or 100-fold before adding the substrate. In the case of an irreversible inhibitor, enzymatic activity is not regained (Figure 6D), whereas, in the case of a reversible compound, a slow release of the inhibitor and a gradual increase of the enzymatic activity rate is observed (Figure 6B) ([Copeland, 2013]; [McWhirter, 2021]). The jump-dilution assays confirmed the behavior described by the progress curves.
2.2.2 Jump dilution results
Supplementary Table 2. Jump dilution of selected alkyne and desthiobiotin probes against a panel of trypsin-like serine proteases. […]
# R R DtBa 3 tryptase Thrombin uPA CatG
32b H Alk Irrev. Irrev. Rev. Irrev. Rev.
45b DtB Irrev. Irrev. Rev. N.D. N.D.
33b Alk Irrev. Irrev. Rev. Irrev. Rev.
46b Cl DtB Irrev. Irrev. Rev. N.D. N.D.
34b H Alk Rev. Rev. Rev. Irrev. Rev.
50b DtB Rev. Rev. Rev. Irrev. Rev.
35b Alk Rev. Rev. Rev. Irrev. Rev.
52b NHCOMe DtB Rev. Rev. Rev. Irrev. Rev.
36b Alk Rev. Rev. Rev. Irrev. Rev.
54b Cl DtB Rev. Rev. Rev. Irrev. Rev.
37b Alk Irrev. Irrev. N.D. Irrev. Irrev.
55b H DtB Irrev. Irrev. N.D. Irrev. Irrev.
38b Alk Irrev. Irrev. N.D. Irrev. Irrev.
56b NHCOMe DtB Irrev. Irrev. N.D. Irrev. Irrev.
39b Alk Irrev. Irrev. N.D. Irrev. Rev.
57b Cl DtB Irrev. Irrev. N.D. Irrev. Rev.
41b H Alk Irrev. Irrev. Irrev. N.D. N.D.
31b Pro-Lys H Alk Irrev. Irrev. Irrev. Irrev. N.D. a Alk: ABP precursor bearing an alkyne; DtB: desthiobiotin probe b Panel of serine proteases abbreviations: urokinase plasminogen activator (uPA), cathepsin G (catG) N.D.: IC50 is greater than 10µM, and jump dilution was not performed
2.2.3 Progress curves and Jump dilution experiments
Kinetic assays were performed in the following manner. The inhibitor was mixed with the substrate, and the buffer solution with the enzyme was added at the time zero. The progress curves show the release of para-nitroaniline (pNA) or 7-amino-4-methyl coumarin (AMC) as a function of time.
To monitor the dissociation of the inhibitor-enzyme, aliquots of the enzyme were incubated at 37 °C without and with the inhibitor at a concentration 10 times higher than its IC 50. The enzyme […]
min, the aliquots were diluted 10-fold or 100-fold into the substrate concentration and assay buffer used for the IC50 determination. The dissociation of the enzyme-inhibitor complex was monitored by substrate hydrolysis over time. Blue lines represent the control where no inhibitor was present. Pink lines represent the assay with inhibitor.

The mark [3] stands for this setting: Trypsin-3 K1, apparent equilibrium constant of the first step of slow-binding.
The mark [4] stands for this setting: Trypsin-3 KI*, apparent equilibrium constant of the overall process.

Regarding `C#CCCCOC(=O)NC(c1ccc(NC(=N)N)cc1)P(=O)(Oc1ccc(Cl)cc1)Oc1ccc(Cl)cc1` (stereo not drawn) [39b, Pent-4-yn-1-yl ((bis(4-chlorophenoxy)phosphoryl)(4-guanidinophenyl)methyl)carbamate], the “Trypsin-3 mechanism of inhibition” value in experiment [1] is given as “Irrev”. Also, the “Trypsin-3 jump dilution result” value in experiment [2] is “Irrev”.

For `C#CCCCOC(=O)NC(c1ccc(NC(=N)N)cc1)P(=O)(Oc1ccc(NC(C)=O)cc1)Oc1ccc(NC(C)=O)cc1` (stereo not drawn) [38b, Pent-4-yn-1-yl ((bis(4-acetamidophenoxy)phosphoryl)(4-guanidinophenyl)methyl) carbamate], in experiment [1], the Trypsin-3 kapp came out at 358 ± 6 M⁻¹ s⁻¹ and the “Trypsin-3 mechanism of inhibition” value is reported as “Irrev”. The “Trypsin-3 jump dilution result” value in experiment [2] is “Irrev”.

As to `C#CCCCOC(=O)NC(CCCNC(=N)N)P(=O)(Oc1ccccc1)Oc1ccccc1` (stereo not drawn) [32b], in experiment [1], the Trypsin-3 kapp is reported as 18 × 10^2 ± 66 M^−1 s^−1 and the “Trypsin-3 mechanism of inhibition” value was “Irrev”. In experiment [1] (based on the kapp values), the “selectivity for trypsin-3 over the other tested proteases” value is on record as “at least 30 fold”. Moreover, the “Trypsin-3 jump dilution result” value in experiment [2] is recorded as “Irrev”.

Regarding `CC(=O)Nc1ccc(OP(=O)(Oc2ccc(NC(C)=O)cc2)C(NC(=O)OCCCc2cn(CCOCCOCCOCCNC(=O)CCCCC[C@H]3NC(=O)N[C@H]3C)nn2)c2ccc(NC(=N)N)cc2)cc1` (stereo partly drawn) [56b], in experiment [1], the Trypsin-3 kapp came out at 334 ± 85 M⁻¹ s⁻¹ and the “Trypsin-3 mechanism of inhibition” value is “Irrev”. In addition, the “Trypsin-3 jump dilution result” value in experiment [2] is on record as “Irrev”.

`C[C@@H]1NC(=O)N[C@@H]1CCCCCC(=O)NCCOCCOCCOCCn1cc(CCCOC(=O)NC(c2ccc(NC(=N)N)cc2)P(=O)(Oc2ccc(Cl)cc2)Oc2ccc(Cl)cc2)nn1` (stereo partly drawn) [57b]: in experiment [1], the Trypsin-3 kapp is on record as 13 × 10^2 ± 340 M^−1 s^−1 and the “Trypsin-3 mechanism of inhibition” value is “Irrev”. For the same molecule, the “Trypsin-3 jump dilution result” value in experiment [2] is on record as “Irrev”.

As for `C[C@@H]1NC(=O)N[C@@H]1CCCCCC(=O)NCCOCCOCCOCCn1cc(CCCOC(=O)NC(Cc2ccc(NC(=N)N)cc2)P(=O)(Oc2ccccc2)Oc2ccccc2)nn1` (stereo partly drawn) [50b, 3-(1-(18-((4R,5S)-5-methyl-2-oxoimidazolidin-4-yl)-13-oxo-3,6,9-trioxa-12-azaoctadecyl)-1H-1,2,3-triazol-4-yl)propyl (1-(diphenoxyphosphoryl)-2-(4-guanidinophenyl)ethyl)carbamate trifluoroacetate salt], the Ki in experiment [1] (setting [3]) came out at 98 ± 22 nM. Moreover, in experiment [1] (setting [4]), the Ki stood at 3 ± 0.2 nM. Also, in experiment [1], the Trypsin-3 kapp was 49 × 10^3 ± 2979 M^−1 s^−1 and the “Trypsin-3 mechanism of inhibition” value was “Rev”. For the same molecule, the “Trypsin-3 jump dilution result” value in experiment [2] is on record as “Rev”.

Turning to `CC(=O)Nc1ccc(OP(=O)(Oc2ccc(NC(C)=O)cc2)C(Cc2ccc(NC(=N)N)cc2)NC(=O)OCCCc2cn(CCOCCOCCOCCNC(=O)CCCCC[C@H]3NC(=O)N[C@H]3C)nn2)cc1` (stereo partly drawn) [52b], in experiment [1] (setting [3]), the Ki came out at 17 ± 0.5 nM. In experiment [1] (setting [4]), the Ki turned out to be 1 nM. Also, in experiment [1], the Trypsin-3 kapp is 86 × 10^3 ± 8250 M^−1 s^−1 and the “Trypsin-3 mechanism of inhibition” value is listed as “Rev”. Further, the “Trypsin-3 jump dilution result” value in experiment [2] is “Rev”.

Consider `C#CCCCOC(=O)NC(C1CCN(C(=N)N)CC1)P(=O)(Oc1ccccc1)Oc1ccccc1` (stereo not drawn) [41b], for which, in experiment [1], the Trypsin-3 kapp is on record as 17 × 10^2 ± 142 M^−1 s^−1 and the “Trypsin-3 mechanism of inhibition” value was “irreversible inhibition; also recorded: Irrev”. Moreover, the “Trypsin-3 jump dilution result” value in experiment [2] was “Irrev”.

On to `C#CCCCOC(=O)NC(CCCNC(=N)N)P(=O)(Oc1ccc(Cl)cc1)Oc1ccc(Cl)cc1` (stereo not drawn) [33b], for which, in experiment [1], the Trypsin-3 kapp is on record as 35 × 10^2 ± 40 M^−1 s^−1 and the “Trypsin-3 mechanism of inhibition” value is recorded as “irreversibility; also recorded: Irrev”. For the same molecule, the “Trypsin-3 jump dilution result” value in experiment [2] is on record as “Irrev”.

Consider `C[C@@H]1NC(=O)N[C@@H]1CCCCCC(=O)NCCOCCOCCOCCn1cc(CCCOC(=O)NC(CCCNC(=N)N)P(=O)(Oc2ccccc2)Oc2ccccc2)nn1` (stereo partly drawn) [45b], for which, in experiment [1], the Trypsin-3 kapp is on record as 17 × 10^2 ± 122 M^−1 s^−1 and the “Trypsin-3 mechanism of inhibition” value is listed as “Irrev”. Also, in experiment [2], the “Trypsin-3 jump dilution result” value is recorded as “Irrev”.

Consider `C[C@@H]1NC(=O)N[C@@H]1CCCCCC(=O)NCCOCCOCCOCCn1cc(CCCOC(=O)NC(c2ccc(NC(=N)N)cc2)P(=O)(Oc2ccccc2)Oc2ccccc2)nn1` (stereo partly drawn) [55b], for which, in experiment [1], the Trypsin-3 kapp was determined as 231 ± 18 M⁻¹ s⁻¹ and the “Trypsin-3 mechanism of inhibition” value is “Irrev”. The “Trypsin-3 jump dilution result” value in experiment [2] is on record as “Irrev”.

As to `C#CCCCOC(=O)NC(Cc1ccc(NC(=N)N)cc1)P(=O)(Oc1ccc(Cl)cc1)Oc1ccc(Cl)cc1` (stereo not drawn) [36b], the Ki stood at 8 ± 0.8 nM in experiment [1] (setting [3]) and 1 ± 0.1 nM in experiment [1] (setting [4]). Further, the Trypsin-3 kapp in experiment [1] was 29 × 10^3 ± 6499 M^−1 s^−1. In addition, the “Trypsin-3 mechanism of inhibition” value in experiment [1] is on record as “Rev”. For the same molecule, the “Trypsin-3 jump dilution result” value in experiment [2] is given as “Rev”.

Take `C#CCCCOC(=O)NC(Cc1ccc(NC(=N)N)cc1)P(=O)(Oc1ccc(NC(C)=O)cc1)Oc1ccc(NC(C)=O)cc1` (stereo not drawn) [35b]: the results for the Ki in experiment [1] (setting [3]) and in experiment [1] (setting [4]) were 1 ± 0.1 nM and 0.1 nM, respectively. For the same molecule, the “Trypsin-3 mechanism of inhibition” value in experiment [1] was “* ^d Rev”. Besides, in experiment [2], the “Trypsin-3 jump dilution result” value is given as “Rev”.

For `C#CCCCOC(=O)NC(Cc1ccc(NC(=N)N)cc1)P(=O)(Oc1ccccc1)Oc1ccccc1` (stereo not drawn) [34b], in experiment [1] (setting [3]), the Ki worked out at 29 ± 5 nM. Further, the Ki in experiment [1] (setting [4]) came out at 3 ± 0.3 nM. For the same molecule, in experiment [1], the Trypsin-3 kapp is recorded as 40 × 10^3 ± 2642 M^−1 s^−1; the “Trypsin-3 mechanism of inhibition” value was “reversible slow-binding and Rev”. In experiment [1] (based on the kapp values), the “selectivity for trypsin-3 over β-tryptase” value is listed as 55 fold, the “selectivity for trypsin-3 versus thrombin” value was “over 2000 fold” and the “selectivity for trypsin-3 versus uPA” value is given as 5 fold. In experiment [2], the “Trypsin-3 jump dilution result” value was “Rev”.
